# Measurements: patent US11091478B2 (Fochon Pharmaceuticals, Ltd., priority 2017, dated 2021)
# Tested on: DOHH2 cells
# Assay: Cell proliferation assay (MTS), DOHH2 cells, 120 h
# Format: cell-based
# Conditions: Homo sapiens, DOHH-2, 120 h
# Source text: Cell Proliferation Assays
# MTS testing kit was purchased from Promega. The RPMI-1640, Fetal bovine serum and Penicillin-Streptomycin were purchased from Gibco. Dimethyl sulfoxide (DMSO) was purchased from Sigma.
# To investigate whether a compound is able to inhibit the activity of BCL-2 in cells, a mechanism-based assay using DOHH2 (DSMZ No.® ACC 47) and RS4;11 (ATCC® CRL-1873™) cell was developed. In this assay, inhibition of Bcl-2 was detected by the inhibition of DOHH2 cells proliferation. DOHH2 cells were cultured in culture flasks to 40-80% confluence in RPMI-1640 plus 10% fetal bovine serum. Cells were collected and plated onto 96-well plates at desired cell density (5000 cells/well). Plates were incubated overnight at 37° C., with 5% CO2 to adhere. Compounds were added to the plates, and the final compound concentrations were 10000, 3333, 1111, […], 124, 41, 14, 4.6 and 1.5 nM. Plates plated with DOHH2 or RS4;11 cells were placed at 37° C., with 5% CO2 for 120 h (DOHH2) or 72 h (RS4;11) respectively. 20 μl MTS/100 μl medium mixture solution were added to each well and incubate the plates for exactly 2 hours. The reaction was stopped by adding 25 μl 10% SDS per well. Measure absorbance at 490 nm and 650 nm (reference wavelength). IC50 was calculated using GraphPad Prism 5.0.
# Select compounds prepared as described above were assayed according to the biological procedures described herein.
row,SMILES,IC50 [nM]
1,"CC1(C)CCC(CN2CCN(c3ccc(C(=O)NS(=O)(=O)c4cc5c(c([N+](=O)[O-])c4)N[C@H](CN4CCC(C)(O)CC4)C5)c(Oc4cnc5[nH]ccc5c4)c3)CC2)=C(c2ccc(Cl)cc2)C1 [Example 1-4, (S)-2-((1H-pyrrolo[2,3-b]pyridin-5-yl)oxy)-4-(4-((4′-chloro-5,5-dimethyl-3,4,5,6-tetra-hydro-[1,1′-biphenyl]-2-yl)methyl)piperazin-1-yl)-N-((2-((4-hydroxy-4-methylpiperidin-1-yl)methyl)-7-nitroindolin-5-yl)sulfonyl) benzamide]",308
2,"CC1(C)CCC(CN2CCN(c3ccc(C(=O)NS(=O)(=O)c4cc5c(c([N+](=O)[O-])c4)N[C@H](CO)C5)c(Oc4cnc5[nH]ccc5c4)c3)CC2)=C(c2ccc(Cl)cc2)C1 [Example 1-6, (S)-2-((1H-pyrrolo[2,3-b]pyridin-5-yl)oxy)-4-(4-((4′-chloro-5,5-dimethyl-3,4,5,6-tetra-hydro-[1,1′-biphenyl]-2-yl)methyl)piperazin-1-yl)-N-((2-(hydroxymethyl)-7-nitroindolin-5-yl)sulfonyl)benzamide]",221
3,"CC1(C)CCC(CN2CCN(c3ccc(C(=O)NS(=O)(=O)c4cc5c(c([N+](=O)[O-])c4)N[C@H](CCO)C5)c(Oc4cnc5[nH]ccc5c4)c3)CC2)=C(c2ccc(Cl)cc2)C1 [Example 1-20, (S)-2-((1H-pyrrolo[2,3-b]pyridin-5-yl)oxy)-4-(4-((4′-chloro-5,5-dimethyl-3,4,5,6-tetra-hydro-[1,1′-biphenyl]-2-yl)methyl)piperazin-1-yl)-N-((2-(2-hydroxyethyl)-7-nitro-indolin-5-yl)sulfonyl)benzamide]",170
4,"CC1(C)CCC(CN2CCN(c3ccc(C(=O)NS(=O)(=O)c4cc([N+](=O)[O-])c5nc(CN6CCOCC6)[nH]c5c4)c(Oc4cnc5[nH]ccc5c4)c3)CC2)=C(c2ccc(Cl)cc2)C1 [Example 1-27, 2-((1H-pyrrolo[2,3-b]pyridin-5-yl)oxy)-4-(4-((4′-chloro-5,5-dimethyl-3,4,5,6-tetrahydro-[1,1′-biphenyl]-2-yl)methyl)piperazin-1-yl)-N-((2-(morpholinomethyl)-4-nitro-1H-benzo[d]imidazol-6-yl)sulfonyl)benzamide]",51
5,"CN1CCN(C[C@@H]2COc3cc(S(=O)(=O)NC(=O)c4ccc(N5CCN(CC6=C(c7ccc(Cl)cc7)CC(C)(C)CC6)CC5)cc4Oc4cnc5[nH]ccc5c4)cc([N+](=O)[O-])c3N2)CC1 [Example 2-4, (R)-2-((1H-pyrrolo[2,3-b]pyridin-5-yl)oxy)-4-(4-((4′-chloro-5,5-dimethyl-3,4,5,6-tetra-hydro-[1,1′-biphenyl]-2-yl)methyl)piperazin-1-yl)-N-((3-((4-methylpiperazin-1-yl)meth-yl)-5-nitro-3,4-dihydro-2H-benzo[b][1,4]oxazin-7-yl)sulfonyl)benzamide]",139
6,"CC1(C)CCC(CN2CCN(c3ccc(C(=O)NS(=O)(=O)c4cc5c(c([N+](=O)[O-])c4)N[C@H](CCNC(=O)C4CCOCC4)CO5)c(Oc4cnc5[nH]ccc5c4)c3)CC2)=C(c2ccc(Cl)cc2)C1 [Example 2-57, (R)-N-(2-(7-(N-(2-((1H-pyrrolo[2,3-b]pyridin-5-yl)oxy)-4-(4-((4′-chloro-5,5-dimethyl-3,4,5,6-tetrahydro-[1,1′-biphenyl]-2-yl)meth-yl)piperazin-1-yl)benzoyl)sulfamoyl)-5-nitro-3,4-dihydro-2H-benzo[b][1,4]oxazin-3-yl)ethyl)tetrahydro-2H-pyran-4-carboxamide]",392
7,"CC1(C)CCC(CN2CCN(c3ccc(C(=O)NS(=O)(=O)c4cc5c(c([N+](=O)[O-])c4)N[C@@H](CCNC(=O)N4CCOCC4)CO5)c(Oc4cnc5[nH]ccc5c4)c3)CC2)=C(c2ccc(Cl)cc2)C1 [Example 2-58, (S)-N-(2-(7-(N-(2-((1H-pyrrolo[2,3-b]pyridin-5-yl)oxy)-4-(4-((4′-chloro-5,5-dimethyl-3,4,5,6-tetrahydro-[1,1′-biphenyl]-2-yl)meth-yl)piperazin-1-yl)benzoyl)sulfamoyl)-5-nitro-3,4-dihydro-2H-benzo[b][1,4]oxazin-3-yl)ethyl)morpholine-4-carboxamide]",868
8,CC1(C)CCC(CN2CCN(c3ccc(C(=O)NS(=O)(=O)c4cc5c(c([N+](=O)[O-])c4)N[C@H](CCNC(=O)N4CCOCC4)CO5)c(Oc4cnc5[nH]ccc5c4)c3)CC2)=C(c2ccc(Cl)cc2)C1 [Example 2-59],730
9,"CC(=O)NCC[C@@H]1COc2cc(S(=O)(=O)NC(=O)c3ccc(N4CCN(CC5=C(c6ccc(Cl)cc6)CC(C)(C)CC5)CC4)cc3Oc3cnc4[nH]ccc4c3)cc([N+](=O)[O-])c2N1 [Example 2-62, (R)-2-((1H-pyrrolo[2,3-b]pyridin-5-yl)oxy)-N-((3-(2-acetamidoethyl)-5-nitro-3,4-di-hydro-2H-benzo[b][1,4]oxazin-7-yl)sulfonyl)-4-(4-((4′-chloro-5,5-dimethyl-3,4,5,6-tetra-hydro-[1,1′-biphenyl]-2-yl)methyl)piperazin-1-yl)benzamide]",230
10,"CC1(C)CCC(CN2CCN(c3ccc(C(=O)NS(=O)(=O)c4cc5c(c([N+](=O)[O-])c4)N[C@@H](CNS(=O)(=O)N4CCOCC4)CO5)c(Oc4cnc5[nH]ccc5c4)c3)CC2)=C(c2ccc(Cl)cc2)C1 [Example 2-67, (S)-2-((1H-pyrrolo[2,3-b]pyriidn-5-yl)oxy)-4-(4-((4′-chloro-5,5-dimethyl-3,4,5,6-tetra-hydro-[1,1′-biphenyl]-2-yl)methyl)piperazin-1-yl)-N-((3-((morpholine-4-sulfonamido)methyl)-5-nitro-3,4-dihydro-2H-benzo[b] [1,4]oxazin-7-yl)sulfonyl)benzamide]",1320
11,"CC1(C)CCC(CN2CCN(c3ccc(C(=O)NS(=O)(=O)c4cc5c(c([N+](=O)[O-])c4)N[C@@H](CN=S4(=O)CCCC4)CO5)c(Oc4cnc5[nH]ccc5c4)c3)CC2)=C(c2ccc(Cl)cc2)C1 [Example 2-76, (S)-2-((1H-pyrrolo[2,3-b]pyridin-5-yl)oxy)-4-(4-((4′-chloro-5,5-dimethyl-3,4,5,6-tetra-hydro-[1,1′-biphenyl]-2-yl)methyl)piperazin-1-yl)-N-((5-nitro-3-(((1-oxidotetrahydro-1λ^6-thiophen-1-ylidene)amino)methyl)-3,4-dihydro-2H-benzo[b][1,4]oxazin-7-yl)sulfo-nyl)benzamide]",120
12,"C[C@H]1COCCN1C[C@H]1COc2cc(S(=O)(=O)NC(=O)c3ccc(N4CCN(CC5=C(c6ccc(Cl)cc6)CC(C)(C)CC5)CC4)cc3Oc3cnc4[nH]ccc4c3)cc([N+](=O)[O-])c2N1 [Example 2-85, 2-((1H-pyrrolo[2,3-b]pyridin-5-yl)oxy)-4-(4-((4′-chloro-5,5-dimethyl-3,4,5,6-tetra-hydro-[1,1′-biphenyl]-2-yl)methyl)piperazin-1-yl)-N-(((S)-3-(((S)-3-methylmorpholino)meth-yl)-5-nitro-3,4-dihydro-2H-benzo[b][1,4]oxazin-7-yl)sulfonyl)benzamide]",434
13,"C[C@@H]1COCCN1C[C@H]1COc2cc(S(=O)(=O)NC(=O)c3ccc(N4CCN(CC5=C(c6ccc(Cl)cc6)CC(C)(C)CC5)CC4)cc3Oc3cnc4[nH]ccc4c3)cc([N+](=O)[O-])c2N1 [Example 2-86, 2-((1H-pyrrolo[2,3-b]pyridin-5-yl)oxy)-4-(4-((4′-chloro-5,5-dimethyl-3,4,5,6-tetra-hydro-[1,1′-biphenyl]-2-yl)methyl)piperazin-1-yl)-N-(((S)-3-(((R)-3-methylmorpholino)meth-yl)-5-nitro-3,4-dihydro-2H-benzo[b][1,4]oxazin-7-yl)sulfonyl)benzamide]",648
14,"CN=S1(=O)CCN(C[C@H]2COc3cc(S(=O)(=O)NC(=O)c4ccc(N5CCN(CC6=C(c7ccc(Cl)cc7)CC(C)(C)CC6)CC5)cc4Oc4cnc5[nH]ccc5c4)cc([N+](=O)[O-])c3N2)CC1 [Example 2-122, (S)-2-((1H-pyrrolo[2,3-b]pyridin-5-yl)oxy)-4-(4-((4′-chloro-5,5-dimethyl-3,4,5,6-tetra-hydro-[1,1′-biphenyl]-2-yl)methyl)piperazin-1-yl)-N-((3-((1-(methylimino)-1-oxido-1λ^6-thiomorpholino)methyl)-5-nitro-3,4-di-hydro-2H-benzo[b][1,4]oxazin-7-yl)sulfonyl)benzamide]",660
15,"CC1(C)CCC(CN2CCN(c3ccc(C(=O)NS(=O)(=O)c4cc5c(c([N+](=O)[O-])c4)N[C@@H](CN4CCS(=O)(=NC6CC6)CC4)CO5)c(Oc4cnc5[nH]ccc5c4)c3)CC2)=C(c2ccc(Cl)cc2)C1 [Example 2-124, (S)-2-((1H-pyrrolo[2,3-b]pyridin-5-yl)oxy)-4-(4-((4′-chloro-5,5-dimethyl-3,4,5,6-tetra-hydro-[1,1′-biphenyl]-2-yl)methyl)piperazin-1-yl)-N-((3-((1-(cyclopropylimino)-1-oxi-do-1λ^6-thiomorpholino)methyl)-5-nitro-3,4-dihydro-2H-benzo[b][1,4]oxazin-7-yl)sulfonyl)benzamide]",649
